Patent publication US20240141291A1, “FUNCTIONAL BRAIN REGION-SPECIFIC NEURAL SPHEROIDS AND METHODS OF USE” (THE UNITED STATES OF AMERICA, AS REPRESENTED BY THE …, priority 2021, published 2024)
“Also recorded” adds a separate entry of the source.

Experiments:
Assay type in all cases: cell-based, human
[1] = test system: single neuron spheroids expressing hM3Dq or hM4Di; assay: Chemogenetic (DREADDs) activation with CNO, FLIPR calcium activity; details: 1 uM CNO
Description: Viruses and dyes: To assess calcium activity, the calcium dye, Cal6 (Molecular Devices), and genetically encoded calcium indicator, GCaMP6f (Addgene, cat #100836-AAV9) were used. Cal6 was used according to manufacturer's instructions and 10 mL of maintenance media was added to each vial. Two hours before activity was recorded, half of the spheroid media was exchanged for media with Cal6. The plates were covered in foil and placed in the incubator at 37° C. during the 2-hour (hr) incubation period. Since all viruses used were adeno-associated viruses (AAV), they were added to the media on day 7 to allow for 2-weeks expression prior to recording or testing. […]
Fluorescent Imaging plate Reader (FLIPR): The FLIPR Penta (Molecular Devices) was used to assess calcium fluorescence across the 384-well plate simultaneously and to observe changes after treatment with compounds. The evening before calcium activity was measured, plates were sealed with parafilm and centrifuged at 1485×g for 2-min to get spheroids to the bottom of the well in a centered position. On the day of recording, the plate used for recording was placed in the read plate position inside of the FLIPR following the 2-hour Cal6 incubation at 37° C. […] Fluorescent image reads were taken every 0.6 seconds for all plates, with exposure time of 0.03 and 50% excitation intensity. […]

APOE4 PFC-like spheroids = assay: Alzheimer's Disease model, FLIPR calcium activity after compound treatment; details: 90 min after treatment, Memantine 10 μM, Donepezil 1 & 10 uM, EUK-134 1 & 10 μM
Description: (§1) Fluorescent Imaging plate Reader (FLIPR): The FLIPR Penta (Molecular Devices) was used to assess calcium fluorescence across the 384-well plate simultaneously and to observe changes after treatment with compounds. The evening before calcium activity was measured, plates were sealed with parafilm and centrifuged at 1485×g for 2-min to get spheroids to the bottom of the well in a centered position. On the day of recording, the plate used for recording was placed in the read plate position inside of the FLIPR following the 2-hour Cal6 incubation at 37° C. Standard filter sets were used for Cal6 imaging with excitation set at 470-495 and emission at 515-575 nm. Fluorescent image reads were taken every 0.6 seconds for all plates, with exposure time of 0.03 and 50% excitation intensity. Recordings from the initial seven plates consisted of 1000 reads and were 10-min recordings with 2.5 gain, while the final two plates consisted of 500 reads (5-min recordings) with a gain of 2. Baseline recordings were taken across all plates and, if applicable, more recordings were obtained 1-, 30-, 60-, and/or 90-min after compound treatment. In between recordings, plates were wrapped in foil and placed back in the incubator at 37° C.
384 Pin Tool: A 384 well pin tool (Rexroth) was used to transfer compounds simultaneously to the spheroid plate. Prior to compound transfer, the pin tool went through four wash cycles where pins were rinsed with dimethyl sulfoxide (DMSO), followed by methanol, then deionized (DI) water, to ensure the pins were clean. Compound transfer via the 384 well pin tool occurred after the baseline recordings with the fluorescent imaging plate reader (FLIPR). […]
Calcium Activity Analysis: Calcium oscillatory peak detection data from FLIPR recordings was obtained through ScreenWorks 5.1 (Molecular Devices). […] There, percent coefficient of variance (% CV) was calculated within each plate to measure how variable each parameter exported was. […]

VTA-like spheroids [2] = assay: FLIPR calcium activity with Cal6 dye, control compounds / DAMGO (Example 3); details: VTA-like spheroids; recordings 1-, 30-, 60-min after treatment
Description: (§2) Viruses and dyes: To assess calcium activity, the calcium dye, Cal6 (Molecular Devices), and genetically encoded calcium indicator, GCaMP6f (Addgene, cat #100836-AAV9) were used. Cal6 was used according to manufacturer's instructions and 10 mL of maintenance media was added to each vial. Two hours before activity was recorded, half of the spheroid media was exchanged for media with Cal6. The plates were covered in foil and placed in the incubator at 37° C. during the 2-hour (hr) incubation period. Since all viruses used were adeno-associated viruses (AAV), they were added to the media on day 7 to allow for 2-weeks expression prior to recording or testing. All viruses were added to the media at 2e5 multiplicity of infection (MOI). GCaMP6f infection occurred via an adeno-associated virus serotype 9 (AAV9) expressed under the CAG promoter for expression in both neurons and astrocytes. Designer receptors exclusively activated by designer drugs (DREADDs) viruses were used to stimulate and inhibit neuronal activity within spheroids. Both viruses were retrograde AAVs expressed under the human Synapsin promoter for expression in neurons and fused with an mCherry fluorophore. The DREADDs viruses either inserted the designer receptor hM4D(Gi), an inhibitory G-protein coupled receptor, or hM3D(Gq), a stimulatory G-protein coupled receptor. Clozapine-N-oxide (CNO, Tocris cat #4936) was suspended in dimethyl sulfoxide (DMSO) and used as the designer drug to activate the DREADDs viruses. CNO was tested at 1 and 10 μM, with data reported from the 1 μM concentration.
as §1
DAMGO was reconstituted in water at a 1 mM concentration and diluted in media to 20 µM such that spheroids would be treated with a final concentration of 10 μM after the half media exchange. Two aspects of OUD were modeled, chronic treatment along with opioid withdrawal. […]
384 Pin Tool: A 384 well pin tool (Rexroth) was used to transfer compounds simultaneously to the spheroid plate. […] Compound transfer via the 384 well pin tool occurred after the baseline recordings with the fluorescent imaging plate reader (FLIPR). […]

PFC-like spheroids [3] = assay: FLIPR calcium activity with Cal6 dye, control compounds / DAMGO / AD compounds (Example 3); details: PFC-like spheroids; recordings 1-, 30-, 60-min after treatment
Description: as §2, §1
DAMGO was reconstituted in water at a 1 mM concentration and diluted in media to 20 µM such that spheroids would be treated with a final concentration of 10 μM after the half media exchange. Two aspects of OUD were modeled, chronic treatment along with opioid withdrawal. For spheroids subjected to chronic DAMGO treatment, 20 μM DAMGO in maintenance media was added via half media exchange beginning on day 10, with treatments occurring every other day for 10 days, giving a total of five treatments.
384 Pin Tool: A 384 well pin tool (Rexroth) was used to transfer compounds simultaneously to the spheroid plate. Prior to compound transfer, the pin tool went through four wash cycles where pins were rinsed with dimethyl sulfoxide (DMSO), followed by methanol, then deionized (DI) water, to ensure the pins were clean. Compound transfer via the 384 well pin tool occurred after the baseline recordings with the fluorescent imaging plate reader (FLIPR). Here, 60 nL of compound suspended in DMSO was transferred to 60 µL of media in each well, diluting the compounds by 1000-fold and giving a final DMSO concentration of 0.1%.

PFC-like spheroids [4] = assay: FLIPR calcium activity profiling, compound addition (Examples 1-2); details: FLIPR recordings 1-, 30-, 70-min after compound (t1, t30, t70)
Description: (§3) To examine neuronal activity changes as a response to compound treatment, calcium activity was assessed using a Fluorescent Imaging Plate Reader (FLIPR) Penta (Molecular Devices). FLIPR Calcium 6 Assay kits were purchased from Molecular Devices (PN: R8190). On day of activity profiling, 96-well or 384-well ULA round bottom (black sides, clear bottom) plates containing spheroids were removed from incubator. Fresh FLIPR Calcium 6 dye was prepared by diluting each vial in 10 ml of freshly prepared, phenol-free complete spheroid maturation media and vortexed for 2 minutes. Half of the media was removed from each well (45 μl from 384-well plate wells, 100 ul from 96-well plate wells) and replaced with equal amounts freshly prepared FLIPR Calcium 6 dye, followed by a 2-hour incubation in the dark in a 37 C, 5% CO2 incubator. After 2-hours, plates were removed and kept at room temperature for 10 minutes, then imaged and calcium activity read using the Molecular Devices FLIPR Penta High-Throughput Cellular Screening System. The FLIPR incubator stage was pre-warmed to 37° C. approximately 30 minutes prior to imaging. Standard filter sets were used for Cal6 imaging (excitation 470-495 and emission 515-575 nm). FLIPR recordings were obtained with the camera in normal mode, and settings included: gain was set to 2.5, exposure time to 0.03 seconds, and excitation intensity to 50%. Fluorescent image reads were taken every 0.6 seconds for a total of 1000 reads over a total run time of 10 minutes. Four recordings total were captured: baseline activity, 1-min after compound treatment, 30- and 70-min after compound treatment.
(§4) After baseline activity, cell plates were removed from the FLIPR and transferred to a 384-well pin tool instrument. Prior to compound addition, the pin tool was subjected to 4 wash cycles exposing the pins to water, methanol, and DMSO each time. Compounds, including either “QC compounds” (compounds with known mechanism of action, listed in results) or the mu opioid receptor selective-agonist DAMGO, were transferred from a compound source plate to the 384-well spheroid plate. Immediately after compound transfer, the cell plate was placed back in the FLIPR for the recording that was 1-min after compound transfer to begin. After this 10-min recording, another recording was captured 30-min after compounds were transferred. After the 30-min recording, the plate was again removed from the FLIPR and transferred to the pin tool instrument. During this phase of compound transfer, naloxone was transferred to wells that received DAMGO during the first compound transfer. Following this second compound transfer, the cell plate was placed back in the FLIPR and a final recording was obtained 30-min later, and 70-min after the initial compound transfer.
(§5) The FLIPR software ScreenWorks PeakPro 2.0 was used for the initial analysis of calcium activity using automated peak detection settings. With these settings, average peak statistics over each 10-min recording for each well were exported from PeakPro to Microsoft Excel. ScreenWorks Peak Pro 2.0 software was used to extract 17 activity features describing different aspects of calcium activity profiles. These included peak amplitude (PkA), peak amplitude standard deviation (PkASD), peak count (PkCt), peak rate (measured as peaks per minute, PpM), peak rate SD, peak spacing (PkSp), peak spacing SD (PkSpSD), peak spacing regularity, area under the curve (AUC), AUC SD, peak rise slope, peak rise slope SD, peak rise time (PkRt), peak ride time SD (PkRtSD), peak decay slope, peak decay slope SD, peak decay time (PkDt), and peak decay time SD (PkDtSD). To assess variability of these peak parameters, percent coefficients of variance (CV) were calculated by dividing the standard deviation/mean and multiplying by 100 for each designer spheroid type, and those with % CV's […] 20% were removed from future analysis. […]

VTA-like spheroids [5] = assay: as above; details: FLIPR recordings 1-, 30-, 70-min after compound (t1, t30, t70)
Description: as §3, §4, §5

Compound | effect of chemogenetic activation on peak parameters ([1]; spheroids with Dopa or Gluta composition expressing hM3Dq) | effect of chemogenetic inhibition on peak parameters ([1]; spheroids with Dopa or Gluta composition expressing hM4Di) | reversal of APOE4-induced deficits in peak count and spacing (APOE4 PFC-like spheroids) | functional response (calcium activity peak parameters) to control compound (VTA-like spheroids [2]) | functional response (calcium activity peak parameters) to control compound (PFC-like spheroids [3]) | effect on calcium activity peak parameters compared to DMSO controls (PFC-like spheroids [4]) | effect on calcium activity peak parameters compared to DMSO controls (VTA-like spheroids [5])
C[N+]1([O-])CCN(C2=Nc3cc(Cl)ccc3Nc3ccccc32)CC1 [CNO, Clozapine-N-oxide] | chemogenetic activation increased measures of peak frequency such as peak count and rate while reducing parameters such as peak spacing and peak width | the opposite was observed for these spheroids subjected to chemogenetic inhibition |  |  |  |  | 
COc1cc2c(cc1OC)C(=O)C(CC1CCN(Cc3ccccc3)CC1)C2 (stereo not drawn) [Donepezil] |  |  | reverse deficits caused by APOE4 GABA neurons; also recorded: restore deficits in peak count |  |  |  | 
COc1cccc(C=NCCN=Cc2cccc(OC)c2[O-])c1[O-].[Cl-].[Mn+3] [EUK-134] |  |  | reverse deficits caused by APOE4 GABA neurons; also recorded: restore deficits in peak count |  |  |  | 
CC12CC3CC(C)(C1)CC(N)(C3)C2 [Memantine] |  |  | reverse deficits caused by APOE4 GABA neurons; also recorded: restore deficits in peak count | increases in peak count and rate and decreases in peak amplitude | increases in peak count and rate and decreases in peak amplitude |  | 
NCc1cc(=O)[nH]o1 [Muscimol] |  |  |  | complete inhibition of activity that began immediately after treatment and persisted for at least 60-min | complete inhibition of activity that began immediately after treatment and persisted for at least 60-min | total inhibition of calcium activity that lasted throughout the entire recording period | total inhibition of calcium activity that lasted throughout the entire recording period
CCN1CCCC1CNC(=O)c1cc(S(N)(=O)=O)ccc1OC (stereo not drawn) [Sulpiride] |  |  |  | no changes were observed in measures of peak frequency but increases in peak width and peak decay time were observed | increased peak count and rate while decreasing peak spacing | significantly increased PkCt and PpM while decreasing PkSp 70-min after treatment | did not impact calcium activity, though there was a statistical trend toward significantly increasing PkCt 1-min after treatment
